Source: publication PMC9863607, “Combined Use of Antimicrobial Peptides with Antiseptics against Multidrug-Resistant Bacteria: Pros and Cons” (Pharmaceutics, 2023)
Read-outs that look alike come from different tables or passages of the source. Peptide text beside a SMILES is read from it.

How the values were obtained:
[1] = system: A. baumannii 7226/16; experiment: Crystal violet assay of biofilm formation; type: cell-based, Acinetobacter baumannii; conditions: median of 3 independent experiments; for Minimal FECI, AMP + CAPB, biofilm formation: combination with cocamidopropyl betaine; for Minimal FECI, AMP + DXD, biofilm formation: combination with dioxydin; for Minimal FECI, AMP + ETA, biofilm formation: combination with etidronic acid; for Minimal FECI, AMP + PTS, biofilm formation: combination with prontosan; for MECBF partially inhibiting bacterial biofilms: minimal concentration with significant decrease vs intact control (Mann–Whitney, p < 0.05), 24 h, 37 °C, MHB
Protocol: The impact of the tested antimicrobials and their combinations on the formation of biofilms was quantitated as per the crystal violet assay protocol published by Merritt et al.. Testing was performed in 96-well immunological plates with U-shaped bottoms. Overnight cultures of tested bacteria in MHB were diluted by a factor of 50, mixed 1:1 with 50 μL of active compounds or combinations in the same growth medium adjusted to double the desired final concentration, and left to form biofilms for 24 h at 37 °C. Experimental samples were quadruplicated, and control without antimicrobials was octuplicated.
Then, the liquid content of the test plates was discarded, and the plates were gently washed in still water from residual traces of unattached planktonic bacteria. Each well was supplied with 125 μL 0.1% aqueous solution of crystal violet dye for 10 min at room temperature to stain biofilm components left attached to the surface. After staining, the plates were washed with clear water once more to remove excessive dye and left to air-dry. To quantify the amount of the bound dye corresponding to the thickness of the formed biofilm, it was redissolved in 30% acetic acid, 200 μL of which was introduced into each well. After 15 min at room temperature, the content of the wells was mixed by repetitive pipetting to ensure complete dye extraction, and 125 μL of each sample was transferred well-by-well into 96-well clear flat-bottom plates for spectrophotometric examination. OD was measured at 580 nm. Final results were calculated as medians based on three independent experiments.
The minimal concentrations of AMPs and antiseptics causing a statistically significant inhibitory effect on biofilm formation (i.e., a statistically significant decrease compared with the control biofilm formed by the intact bacteria; Mann–Whitney U-test, p < 0.05) are shown in Table 3 and are later referenced as MECBF (for minimal effective concentration regarding biofilm formation). The exact value of such a minimal effect is admittedly small, within the range of a 10–20% decrease in the density of the emerging biofilm. Thus, the practical usefulness of such an effect, even if strengthened in combinations, is quite questionable; however, from the academic point of view, even slight changes can provide us with information on the mode of interaction between AMPs and antiseptics and allow us to make certain assumptions about the nature of such interactions.
Analyzing the combined action of AMPs and antiseptics (AS) in sub-microbicidal concentrations toward biofilms, we adopted the same approach based on the calculation of fractional indices as the one we used while testing antimicrobial activity on planktonic bacteria. For combinations, the series of concentrations from [MECBF(AMP) + MECBF(AS)], [½MECBF(AMP) + ½MECBF(AS)] and down to [1/32 × MECBF(AMP) + 1/32 × MECBF(AS)] was analyzed. […] The fractional indices, denoted here as fractional effective concentration indices (FECIs), were calculated as follows: FECI = [AMP]/MECBF(AMP) + [AS]/MECBF(AS), where [AMP] and [AS] are the concentration of AMP and antiseptic in a combination that has a statistically significant inhibitory effect on the formation of biofilms if compared with the intact control (Mann–Whitney U-test, p < 0.05). The minimal FECI > 4 was interpreted as antagonism, FECI ≤ 0.5 as synergy, 0.5 < FECI ≤ 1 as additivity, and 1 < FECI ≤ 4 as independent action.

[2] = system: P. aeruginosa MDR 522/17; experiment: microbe, parasite or virus in culture; type: cell-based, Pseudomonas aeruginosa
Protocol: (§1) In this regard the test plates were preincubated for 1 h at 37 °C with 0.1% bovine serum albumin (BSA) in distilled water before use. Bacteria were grown overnight at 37 °C with shaking in 2.1% Müller–Hinton broth (MHB), and then a small aliquot was transferred into the fresh portion of the same medium for another 2–3 h on the day of the experiment to provide us with the log phase bacterial suspension. Concentration of bacterial cells in suspension was evaluated based on absorbance at 620 nm and diluted down to 1 × 10^6 CFU/mL with MHB. Equal volumes of the prepared bacterial suspension in MHB and two-fold serial dilutions of the antimicrobials in 10 mM sodium phosphate (Na-P) buffer (pH 7.4) with 0.1% BSA were mixed and incubated overnight at 37 °C. The lowest concentration where no bacterial growth was observed the next day under visual examination was considered the minimal inhibitory concentration. The test was repeated at least three times, and the final MIC value was established as a median result. Each experiment was conducted in triplicates. Terasaki microplates (10 µL end volume, V-shaped bottom; Sarstedt, Nümbrecht, Germany) were used.

[3] = system: A. baumannii 7226/16; experiment: microbe, parasite or virus in culture; type: cell-based, Acinetobacter baumannii
Protocol: as §1

[4] = sub-microbicidal concentrations
[5] = antiseptics and surfactants, MHB, overnight 37 °C, median of 3–4 independent experiments, prontosan as polyhexanide

Molecule: CC[C@H](C)[C@H](NC(=O)[C@H](CCCNC(=N)N)NC(=O)[C@@H](NC(=O)[C@@H]1CCCN1C(=O)[C@@H]1CCCN1C(=O)[C@H](CCCNC(=N)N)NC(=O)[C@H](CCCNC(=N)N)NC(=O)[C@H](Cc1ccccc1)NC(=O)[C@@H]1CCCN1C(=O)[C@H](CC(C)C)NC(=O)[C@H](CCCNC(=N)N)NC(=O)[C@H](Cc1ccccc1)NC(=O)[C@@H](N)CCCNC(=N)N)[C@@H](C)CC)C(=O)N[C@@H](Cc1c[nH]cn1)C(=O)N1CCC[C@H]1C(=O)N1CCC[C@H]1C(=O)N1CCC[C@H]1C(=O)N[C@@H](Cc1ccccc1)C(=O)N[C@@H](Cc1ccc(O)cc1)C(=O)N1CCC[C@H]1C(=O)N1CCC[C@H]1C(=O)N[C@@H](Cc1ccccc1)C(=O)N[C@@H](CCCNC(=N)N)C(=O)N[C@@H](CCCNC(=N)N)C(=O)N[C@@H](Cc1ccccc1)C(=O)N[C@@H](CC(C)C)C(=O)O [ChBac3.4] (H-RFRLPFRRPPIRIHPPPFYPPFRRFL-OH; N-terminus assumed)
- Minimal FECI, AMP + CAPB, biofilm formation [1, 4]: 0.5
- Minimal FECI, AMP + DXD, biofilm formation [1, 4]: 1
- Minimal FECI, AMP + ETA, biofilm formation [1, 4]: 1.12
- Minimal FECI, AMP + PVG, biofilm formation ([1]; combination with poviargolum, sub-microbicidal concentrations): 1
- Minimal FECI, AMP + PTS, biofilm formation [1, 4]: 0.5
- MECBF partially inhibiting bacterial biofilms [1]: 1/16
- MIC ([2]; MDR 522/17, 1 h): 6.2 µM
- MIC ([3]; 7226/16, 1 h): 6.2 µM

Molecule: [O-][n+]1c(CO)c(CO)[n+]([O-])c2ccccc21 [Dioxydin]
- MECBF partially inhibiting bacterial biofilms [1]: 1/16
- MIC [2, 5]: 125 µg/mL
- MIC [3, 5]: 31.2 µg/mL

Molecule: CC(O)(P(=O)(O)O)P(=O)(O)O [Etidronic acid]
- MECBF partially inhibiting bacterial biofilms [1]: 1/128
- MIC ([2]; Pseudomonas aeruginosa, MDR522/17, antiseptics and surfactants, MHB, overnight 37 °C, median of 3–4 independent experiments, prontosan as polyhexanide, read-out: MIC): 25000 µg/mL
- MIC ([3]; Acinetobacter baumannii, 7226/16, antiseptics and surfactants, MHB, overnight 37 °C, median of 3–4 independent experiments, prontosan as polyhexanide, read-out: MIC): 12500 µg/mL

Molecule: CC(C)C[C@H](NC(=O)[C@H](CCCNC(=N)N)NC(=O)CNC(=O)CNC(=O)[C@@H](N)CCCNC(=N)N)C(=O)N[C@H]1CSSC[C@@H](C(=O)N[C@H](C(=O)NCC(=O)N[C@@H](CCCNC(=N)N)C(N)=O)C(C)C)NC(=O)[C@H](C(C)C)NC(=O)[C@@H]2CSSC[C@H](NC(=O)[C@H](Cc3ccc(O)cc3)NC1=O)C(=O)N[C@@H](CCCNC(=N)N)C(=O)N[C@@H](CCCNC(=N)N)C(=O)N[C@@H](CCCNC(=N)N)C(=O)N[C@@H](Cc1ccccc1)C(=O)N2 [PG-1, protegrin 1]
- Minimal FECI, AMP + CAPB, biofilm formation [1, 4]: 0.5
- Minimal FECI, AMP + DXD, biofilm formation [1, 4]: 1.12
- Minimal FECI, AMP + ETA, biofilm formation [1, 4]: 1.12
- Minimal FECI, AMP + PTS, biofilm formation [1, 4]: 0.25
- MECBF partially inhibiting bacterial biofilms [1]: 1/32
- MIC ([2]; MDR 522/17, 1 h): 6.2 µM
- MIC ([3]; 7226/16, 1 h): 6.2 µM

Molecule: Cocamidopropyl betaine
- MECBF partially inhibiting bacterial biofilms [1]: 1/32
- MIC [2, 5]: >50,000 µg/mL
- MIC [3, 5]: 78.1 µg/mL
